Measurements published in patent US20120277209A1, “PYRAZINE COMPOUNDS AS PHOSPHODIESTERASE 10 INHIBITORS” (Amgen Inc., priority 2009, published 2012).

What follows are compounds tested against PDE10 (UniProt Q9Y233) (assay: PDE10 enzyme inhibition, IMAP TR-FRET assay (MPDE10A7 Enzyme Activity and Inhibition)). Settings: IC50 class against PDE10; read-out: IC50.
Format: biochemical
Experimental: All compounds were divided in five classes based on their IC50 values against PDE10. The range of the IC50 in each class is as follows:
An IMAP TR-FRET assay was used to analyze the enzyme activity (Molecular Devices Corp., Sunnyvale Calif.). 5 μL of serial diluted PDE10A (BPS Bioscience, San Diego, Calif.) or tissue homogenate was incubated with equal volumes of diluted fluorescein labeled cAMP or cGMP for 60 min in 384-well polystyrene assay plates (Corning, Corning, N.Y.) at room temperature. After incubation, the reaction was stopped by adding 60 μL of diluted binding reagents and was incubated for 3 hours to overnight at room temperature. The plates were read on an Envision (Perkin Elmer, Waltham, Mass.) for time resolved fluorescence resonance energy transfer. The data were analyzed with GraphPad Prism (La Jolla, Calif.).
Enzyme Inhibition. To check the inhibition profile, 5 μL of serial diluted compounds were incubated with 5 μL of diluted PDE10 enzyme (BPS Bioscience, San Diego, Calif.) or tissue homogenate in a 384-well polystyrene assay plate (Corning, Corning, N.Y.) for 30 min at room temperature. After incubation, 10 μL of diluted fluorescein labeled cAMP or cGMP substrate were added and incubated for 60 min at room temperature. The reaction was stopped by adding 60 μL of diluted binding reagents and plates were read on an Envision (Perkin Elmer, Waltham, Mass.) for time resolved fluorescence resonance energy transfer. The data were analyzed with GraphPad Prism (La Jolla, Calif.).
The tabulated IC50 data represent an average IC50 data for each compound.
O=C(c1ccc(Oc2nccnc2OCc2cccnc2)cc1)c1nc2ccccc2[nH]1 [Example 179, (1H-benzo[d]imidazol-2-yl)(4-(3-(pyridin-3-ylmethoxy)pyrazin-2-yloxy)phenyl)methanone] showed an IC50 of 100 to 250 nM.
In the case of COC(=O)C1CN(c2nccnc2Oc2ccc(Nc3nc4ccccc4s3)cc2)C1 [Example 83, methyl 1-(3-(4-(benzo[d]thiazol-2-ylamino)phenoxy)pyrazin-2-yl)azetidine-3-carboxylate], the IC50 is reported as < 25 nM.
O=C(c1ccc(Oc2nccnc2OCCCc2cccnc2)cc1)c1nc2ccccc2[nH]1 [Example 178, (1H-benzo[d]imidazol-2-yl)(4-(3-(3-(pyridin-3-yl)propoxy)pyrazin-2-yloxy)phenyl)methanone] was tested, and the IC50 was 25 to 100 nM.
In the case of COCC(=O)N1CCC(c2nccnc2Oc2ccc(C(=O)c3nc4ccccc4n3C)cc2)CC1 [Example 243, 2-methoxy-1-(4-(3-(4-(1-methyl-1H-benzo[d]imidazole-2-carbonyl)phenoxy)pyrazin-2-yl)piperidin-1-yl)ethanone], the IC50 is reported as < 25 nM.
In the case of CN1CCC(c2nccnc2Oc2ccc(C(=O)c3nc4ccccc4[nH]3)cc2)=CC1=O [Example 252, 4-(3-(4-(1H-benzo[d]imidazole-2-carbonyl)phenoxy)pyrazin-2-yl)-1-methyl-5,6-dihydropyridin-2(1H)-one], the IC50 is reported as < 25 nM.
COc1ncc(-c2nccnc2Oc2ccc(Nc3nc4ccccc4s3)cc2)cn1 [Example 144, N-(4-(3-(2-methoxypyrimidin-5-yl)pyrazin-2-yloxy)phenyl)benzo[d]thiazol-2-amine] was tested, and the IC50 was < 25 nM.
OCc1ccc(-c2nccnc2Oc2ccc(Nc3nc4ccccc4s3)cc2)cn1 [Example 146, (5-(3-(4-(benzo[d]thiazol-2-ylamino)phenoxy)pyrazin-2-yl)pyridin-2-yl)methanol] gave an IC50 of 25 to 100 nM.
With COc1ncccc1-c1nccnc1Oc1ccc(C(O)c2nc3ccccc3[nH]2)cc1 (centres unmarked) [Example 229, (1H-BENZO[D]IMIDAZOL-2-YL)(4-(3-(2-METHOXYPYRIDIN-3-YL)PYRAZIN-2-YLOXY)PHENYL)METHANOL] the IC50 was < 25 nM.
For O=C(c1ccc(Oc2nccnc2-c2ccnc(C(F)(F)F)c2)cc1)c1nc2ccccc2[nH]1 [Example 104, (1H-BENZO[D]IMIDAZOL-2-YL)(4-(3-(2-(TRIFLUOROMETHYL)PYRIDIN-4-YL)PYRAZIN-2-YLOXY)PHENYL)METHANONE], the IC50 was < 25 nM.
For CC#CCOc1nccnc1Oc1ccc(C(=O)c2nc3ccccc3[nH]2)cc1 [Example 169, (1H-benzo[d]imidazol-2-yl)(4-(3-(but-2-ynyloxy)pyrazin-2-yloxy)phenyl)methanone], the IC50 was 100 to 250 nM.
With COCC1CCCN(c2nccnc2Oc2ccc(Nc3nc4ccccc4s3)cc2)C1 (centres unmarked) [Example 98, N-(4-(3-(3-(methoxymethyl)-piperidin-1-yl)pyrazin-2-yloxy)-phenyl)benzo[d]thiazol-2-amine] the IC50 was 25 to 100 nM.
O=C(c1ccc(Oc2nccnc2C2CCCC2)cc1)c1nc2ccccc2[nH]1 [Example 220, (1H-benzo[d]imidazol-2-yl)(4-(3-cyclopentylpyrazin-2-yloxy)phenyl)methanone] showed an IC50 of 25 to 100 nM.
In the case of CC(Cc1ccccn1)NC(=O)c1nccnc1Oc1ccc(C(=O)c2nc3ccccc3[nH]2)cc1 (racemic) [Example 259, (rac)-3-(4-(1H-benzo[d]imidazole-2-carbonyl)phenoxy)-N-(1-(pyridin-2-yl)propan-2-yl)pyrazine-2-carboxamide], the IC50 is reported as < 25 nM.
With CC(=O)N1CC=C(c2nccnc2Oc2ccc(C(=O)c3nc4ccccc4[nH]3)cc2)CC1 [Example 133, 1-(4-(3-(4-(1H-benzo[d]imidazole-2-carbonyl)phenoxy)pyrazin-2-yl)-5,6-dihydropyridin-1(2H)-yl)ethanone] the IC50 was < 25 nM.
O=C(c1ccc(Oc2nccnc2Cl)cc1)c1nc2ccc(F)cc2[nH]1 [Example 4, [4-(3-CHLORO-PYRAZIN-2-YLOXY)-PHENYL]-(6-FLUORO-1H-BENZOIMIDAZOL-2-YL)-METHANONE] was tested, and the IC50 was 1000 to 5000 nM.
In the case of OCCN1CCN(c2nccnc2Oc2ccc(Nc3nc4ccccc4s3)cc2)CC1 [Example 79, 2-(4-(3-(4-(benzo[d]thiazol-2-ylamino)phenoxy)pyrazin-2-yl)piperazin-1-yl)ethanol], the IC50 is reported as < 25 nM.
C[C@]1(O)CC[C@@H](c2nccnc2Oc2ccc(C(=O)c3nc4ccccc4[nH]3)cc2)CC1 [Example 196, (1H-benzo[d]imidazol-2-yl)(4-(3-((1S,4S)-4-hydroxy-4-methylcyclohexyl)pyrazin-2-yloxy)phenyl)methanone] was tested, and the IC50 was < 25 nM.
In the case of O=C(c1ccc(Oc2nccnc2C2(F)CCOCC2)cc1)c1nc2ccccc2[nH]1 [Example 203, (1H-BENZO[D]IMIDAZOL-2-YL)(4-(3-(4-FLUOROTETRAHYDRO-2H-PYRAN-4-YL)PYRAZIN-2-YLOXY)PHENYL)METHANONE], the IC50 is reported as < 25 nM.
In the case of Fc1cccc2nc(Nc3ccc(Oc4nccnc4Cl)cc3)sc12 [Example 100, N-(4-(3-chloropyrazin-2-yloxy)-phenyl)-7-fluorobenzo[d]thiazol-2-amine], the IC50 is reported as 1000 to 5000 nM.
With O=C(c1ccc(Oc2nccnc2C2CCOCC2)cc1)c1nc2ccc(F)cc2[nH]1 [Example 183, (6-fluoro-1H-benzo[d]imidazol-2-yl)(4-(3-(tetrahydro-2H-pyran-4-yl)pyrazin-2-yloxy)phenyl)methanone] the IC50 was < 25 nM.
Work on c1ccc2sc(Nc3ccc(Oc4nccnc4-c4ccc(N5CCOCC5)nc4)cc3)nc2c1 [Example 138, N-(4-(3-(6-morpholinopyridin-3-yl)pyrazin-2-yloxy)phenyl)benzo[d]thiazol-2-amine] yielded an IC50 of 100 to 250 nM.
In the case of Cc1cc(-c2nccnc2Oc2ccc(Nc3nc4ccccc4s3)cc2)ccn1 [Example 135, N-(4-(3-(2-methylpyridin-4-yl)pyrazin-2-yloxy)phenyl)benzo[d]thiazol-2-amine], the IC50 is reported as < 25 nM.

Same assay, conditions: PDE10 enzyme inhibition; average IC50 data for each compound; read-out: Average IC50
For c1ccc2sc(Nc3ccc(Oc4nccnc4[C@H]4CCOC4)cc3)nc2c1 (stereo in doubt), the IC50 was 2.03 nM.
With Fc1cc(-c2nccnc2Oc2ccc(Nc3nc4ccccc4s3)c(F)c2)ccn1 [drawing 974] the IC50 was 63.1 nM.
Work on C[C@H](F)C(=O)N1CCC(c2nccnc2Oc2ccc(Nc3nc4ccccc4s3)cc2)CC1 (stereo in doubt) yielded an IC50 of 0.178 nM.
In the case of O=C(c1ccc(Oc2nccnc2N2CCOCC2)cc1)c1nc2ncccc2[nH]1, the IC50 is reported as 11.6 nM.
COC(=O)C1CN(c2nccnc2Oc2ccc(Nc3nc4ccccc4s3)cc2)C1 [drawing 722] was tested, and the IC50 was 8.4 nM.
Cc1noc([C@@H]2CCN(c3nccnc3Oc3ccc(C(=O)c4nc5ccccc5[nH]4)cc3)C2)n1 (stereo in doubt) showed an IC50 of 3.73 nM.
COc1cc(-c2nccnc2Oc2ccc(C(=O)c3nc4ccccc4[nH]3)cc2)ccn1 [drawing 883] was tested, and the IC50 was 7.56 nM.
Compound c1ccc(Nc2ccc(Oc3nccnc3NCC3CCNCC3)cc2)nc1 has an IC50 of 814 nM.
For COCC1CCN(c2nccnc2Oc2ccc(Nc3nc4ccccc4s3)cc2)CC1 [drawing 741], the IC50 was 39.5 nM.
In the case of O=C(c1ccc(Oc2nccnc2OCc2cccnc2)cc1)c1nc2ccccc2[nH]1 [drawing 904], the IC50 is reported as 38.8 nM.
With Cc1ncccc1-c1nccnc1Oc1ccc(C(=O)c2nc3ccccc3n2C)cc1 [drawing 957] the IC50 was 8.78 nM.
Work on O=C(c1ccc(Oc2nccnc2-c2ccnc3ccccc23)cc1)c1nc2ccccc2[nH]1 [drawing 799] yielded an IC50 of 3.59 nM.
Compound c1ccc2sc(Nc3ccc(Oc4nccnc4-c4cncnc4)cc3)nc2c1 [drawing 778] has an IC50 of 12.9 nM.
O=C(c1ccc(Oc2nccnc2C(=O)NCCc2ccc(C(F)(F)F)cc2)cc1)c1nc2ccccc2[nH]1 [drawing 807] was tested, and the IC50 was 24.6 nM.
With c1ccc2sc(Nc3ccc(Oc4nccnc4-c4cccc5ncccc45)cc3)nc2c1 [drawing 821] the IC50 was 14.4 nM.
CN1CCC(c2nccnc2Oc2ccc(C(=O)c3nc4ccccc4[nH]3)cc2)=CC1=O [drawing 921] gave an IC50 of 1.86 nM.
C[C@@H](F)C(=O)N1CCC(c2nccnc2Oc2ccc(C(=O)c3nc4ccccc4[nH]3)cc2)CC1 [drawing 976] showed an IC50 of 0.005 nM.
O=C(c1ccc(Oc2nccnc2[C@H]2CCC[C@H](O)C2)cc1)c1nc2ccccc2[nH]1 [drawing 915] was tested, and the IC50 was 1.12 nM.
O=C(c1ccc(Oc2nccnc2C(=O)NCCc2ccccc2)cc1)c1nc2ccccc2[nH]1 [drawing 827] was tested, and the IC50 was 4.47 nM.
In the case of O[C@@H]1CCC[C@H](c2nccnc2Oc2ccc(Nc3nc4ccccc4s3)cc2)C1 [drawing 910], the IC50 is reported as 2.22 nM.
Work on COC(=O)[C@@H]1CCN(c2nccnc2Oc2ccc(C(=O)c3nc4ccccc4[nH]3)cc2)C1 (stereo in doubt) yielded an IC50 of 3.43 nM.
O=C(c1ccc(Oc2nccnc2-c2ccnc(C(F)(F)F)c2)cc1)c1nc2ccccc2[nH]1 [drawing 753] was tested, and the IC50 was 242 nM.
In the case of c1ccc2sc(Nc3ccc(Oc4nccnc4N4CCC5(CC4)OCCO5)cc3)nc2c1 [drawing 784], the IC50 is reported as 67.8 nM.

Same assay, conditions: PDE10 enzyme inhibition; chiral compounds separated from racemic mixtures; read-out: IC50
O[C@@H]1CCC[C@@H](c2nccnc2Oc2ccc(Nc3nc4ccccc4s3)cc2)C1 [Example 276, (1R,3R)-3-(3-(4-(benzo[d]thiazol-2-ylamino)phenoxy)pyrazin-2-yl)cyclohexanol] was tested, and the IC50 was < 25 nM.
With C[C@@H](F)C(=O)N1CCC(c2nccnc2Oc2ccc(C(=O)c3nc4ccccc4[nH]3)cc2)CC1 [Example 277, (R)-1-(4-(3-(4-(1H-benzo[d]imidazole-2-carbonyl)phenoxy)pyrazin-2-yl)piperidin-1-yl)-2-fluoropropan-1-one] the IC50 was < 25 nM.
